Values joined by “and” are separate entries in the source; they are usually repeats but may differ in a detail not shown here. Equal entries are not always repeated.
Experiments:
HIVpp = test: HIV pseudotyped virus (HIVpp) entry counter-screen; format: cell-based; conditions: 1st and 2nd trial
Protocol: Infection of hepatoma cell lines with HCV pseudotype particles and screen for inhibitory peptides. The hepatoma cells, Huh7, was seeded at 8000 cells in 90 ul medium in 96-well plate. In the case of the inhibitor screen, the inhibitor was incubated with cells for one hour at 37° C. and then 50 ul viral supernatant was added to the cells 24 hours after seeding. The viral stock was pre-tittered and diluted to yield approximately 10,000 to 20,000 RLU. The cells were incubated at 37° C. with 5% CO2 for additional 72 hours and were harvested for luciferase assay. Peptide stocks were prepared in 100% DMSO at 10 mg/ml and were first screened at 100 ug/ml and then a dose responsive curve was generated with 10 points 3-fold titration starting from 100 ug/ml.
The specificity of the peptides were counter-screened with AMLV and HIV pseudotyped viruses using the same infection protocol.
The data points for the dose response curve of peptide […] (SEQ ID NO: 77) are shown below in tables 5A (HCVpp) and 5B (HIVpp). The peptide of SEQ ID NO: 77 was first serial diluted by the factor of 3 in 100% DMSO from 100 ug/ml and then transferred to the assay plates at 100-fold dilution. The peptide was first incubated with cells and HCVpp (A) or HIVpp (B), respectively, for 30 minutes at […] in this experiment. Then, the medium containing the peptide was removed from the cells and virus with peptide was added to the cells. Cells were incubated for 72 hours and then were harvested for luciferase assay. Two separate trials were performed.

HCVpp = test: Wash off study, HCVpp entry under conditions A-D at 37° C. or 4° C.; format: cell-based, hepatitis C virus; conditions: for luciferase units: 37° C.; for luciferase units observed in the entry assay: 4° C., listed as V-2b
Protocol: To identify if the peptides of the invention bind to the cells and therefore inhibit entry, anti-CD81 antibody or peptide (SEQ ID NO: 77) was tested at four conditions: • (A) peptide or anti-CD81 antibody was pre-incubated with cells and virus separately, cells were washed and virus together with peptide was added; • (B) peptide or anti-CD81 antibody was pre-incubated with virus only first and then virus together with peptide was added to the cells; • (C) peptide or anti-CD81 antibody was preincubated with cells only and washed off, and then virus was added; and • (D) same as C except that virus was washed off after 1 hour of incubation.
The majority of difference seen before the 4-hour time-point is in line with the model wherein most of the entry events occur during the first four hours (data not shown). As expected, the RLU signal was reduced at earlier time points and lead to higher variation of the assay. […] In anticipating similar phenomena might exist with the peptide, we applied the one hour virus incubation in the following studies. In tables 19-22, condition D was identical to condition C except that virus was removed after 1 hour of incubation. […] Anti-CD81 antibody binds to CD81 expressed on the cells and therefore blocks HCVpp entry.
The data in tables 19 and 20 were generated in assays conducted at 37° C. The date generated in tables 21 and 22 were generated in assays conducted at 4° C. The numbers in each table (19-22) represent the luciferase units observed in the entry assay under each indicated condition.

[1] = peptide 0.0457 ug/ml, condition A
[2] = peptide 0.0457 ug/ml, condition B
[3] = peptide 0.0457 ug/ml, condition C
[4] = peptide 0.1372 ug/ml, condition A
[5] = peptide 0.1372 ug/ml, condition B
[6] = peptide 0.1372 ug/ml, condition C
[7] = peptide 0.4115 ug/ml, condition A
[8] = peptide 0.4115 ug/ml, condition B
[9] = peptide 0.4115 ug/ml, condition C
[10] = peptide 1.2346 ug/ml, condition A
[11] = peptide 1.2346 ug/ml, condition B
[12] = peptide 1.2346 ug/ml, condition C
[13] = peptide 3.7037 ug/ml, condition A
[14] = peptide 3.7037 ug/ml, condition B
[15] = peptide 3.7037 ug/ml, condition C
[16] = peptide 11.1111 ug/ml, condition A
[17] = peptide 11.1111 ug/ml, condition C
[18] = peptide 33.3333 ug/ml, condition A
[19] = peptide 33.3333 ug/ml, condition B
[20] = peptide 33.3333 ug/ml, condition C

In the case of “V-S-F-A-I-K-W-E-Y-V-L-L-L-F-L-L [SEQ ID NO: 77]”, the RLU units (HIVpp; peptide conc. 0.091515 log ug/ml) is reported as 674698 RLU and 651004 RLU, the RLU units (HIVpp; peptide conc. 0.568636 log ug/ml) is reported as 561454 RLU and 612198 RLU and the RLU units (HIVpp; peptide conc. 1.045758 log ug/ml) is reported as 740592 RLU and 744482 RLU. The RLU units (HIVpp; peptide conc. 1.522879 log ug/ml) was 787025 RLU and 683636 RLU, the RLU units (HIVpp; peptide conc. 2 log ug/ml) was 435408 RLU and 543239 RLU and the RLU units (HIVpp; peptide conc. −0.38561 log ug/ml) was 732652 RLU and 734586 RLU. For the same substance, the RLU units (HIVpp; peptide conc. −0.86273 log ug/ml) was 676303 RLU and 639921 RLU, the RLU units (HIVpp; peptide conc. −1.33985 log ug/ml) was 815312 RLU and 754404 RLU and the luciferase units (HCVpp; peptide 0.0046 ug/ml (two lines), condition A) was 74772 luciferase units and 76125 luciferase units and 57485 luciferase units and 58523 luciferase units. The luciferase units (HCVpp; peptide 0.0046 ug/ml (two lines), condition B) was 65028 luciferase units and 60343 luciferase units and 57349 luciferase units and 51858 luciferase units, the luciferase units (HCVpp; peptide 0.0046 ug/ml (two lines), condition C) was 40529 luciferase units and 45271 luciferase units and 37116 luciferase units and 32831 luciferase units and the luciferase units (HCVpp; [1]) was 50460 luciferase units and 53231 luciferase units. For the same substance, the luciferase units (HCVpp; [2]) was 47929 luciferase units and 53377 luciferase units, the luciferase units (HCVpp; [3]) was 36956 luciferase units and 46680 luciferase units and the luciferase units (HCVpp; peptide 0.0457 ug/ml, condition D) was 3531 luciferase units and 2785 luciferase units. The luciferase units (HCVpp; [4]) was 44159 luciferase units and 41959 luciferase units, the luciferase units (HCVpp; [5]) was 43468 luciferase units and 36136 luciferase units and the luciferase units (HCVpp; [6]) was 34241 luciferase units and 44163 luciferase units. The luciferase units (HCVpp; peptide 0.1372 ug/ml, condition D) was 2443 luciferase units and 4834 luciferase units, the luciferase units (HCVpp; [7]) was 28106 luciferase units and 25559 luciferase units and the luciferase units (HCVpp; [8]) was 26979 luciferase units and 31819 luciferase units. For the same substance, the luciferase units (HCVpp; [9]) was 40225 luciferase units and 43467 luciferase units, the luciferase units (HCVpp; peptide 0.4115 ug/ml, condition D) was 3257 luciferase units and 2555 luciferase units and the luciferase units (HCVpp; [10]) was 21301 luciferase units and 21733 luciferase units. The luciferase units (HCVpp; [11]) was 25204 luciferase units and 14452 luciferase units, the luciferase units (HCVpp; [12]) was 36450 luciferase units and 40467 luciferase units and the luciferase units (HCVpp; [13]) was 15025 luciferase units and 10613 luciferase units. For the same substance, the luciferase units (HCVpp; [14]) was 15213 luciferase units and 12233 luciferase units, the luciferase units (HCVpp; [15]) was 31857 luciferase units and 32265 luciferase units and the luciferase units (HCVpp; peptide 3.7037 ug/ml, condition D) was 2974 luciferase units and 3707 luciferase units. For the same substance, the luciferase units (HCVpp; [16]) was 12402 luciferase units and 6768 luciferase units, the luciferase units (HCVpp; peptide 11.1111 ug/ml, condition B) was 10212 luciferase units and 6902 luciferase units and the luciferase units (HCVpp; [17]) was 28818 luciferase units and 33022 luciferase units. The luciferase units (HCVpp; peptide 11.1111 ug/ml, condition D) was 3302 luciferase units and 3259 luciferase units, the luciferase units (HCVpp; [18]) was 6467 luciferase units and 6356 luciferase units and the luciferase units (HCVpp; [19]) was 7146 luciferase units and 4501 luciferase units. The luciferase units (HCVpp; [20]) was 23383 luciferase units and 19309 luciferase units, the luciferase units (HCVpp; peptide 33.3333 ug/ml, condition D) was 2351 luciferase units and 2058 luciferase units and the luciferase units (HCVpp; peptide 100.0000 ug/ml, condition A (pre-incubated with cells and virus separately, cells washed)) was 9216 luciferase units and 7419 luciferase units. The luciferase units (HCVpp; peptide 100.0000 ug/ml, condition B (pre-incubated with virus only)) was 8074 luciferase units and 4093 luciferase units, the luciferase units (HCVpp; peptide 100.0000 ug/ml, condition C (pre-incubated with cells only, washed off)) was 19088 luciferase units and 14073 luciferase units and the luciferase units (HCVpp; peptide 100.0000 ug/ml, condition D (as C, virus washed off after 1 hour)) was 780 luciferase units and 1531 luciferase units. The “luciferase units observed in the entry assay” value (from here on “luciferase units observed”) (HCVpp; peptide 0.0046 ug/ml, condition A) was 22435 luciferase units and 18765 luciferase units and 17613 luciferase units and 22306 luciferase units, the “luciferase units observed” value (HCVpp; peptide 0.0046 ug/ml, condition B) was 26860 luciferase units and 23215 luciferase units and 23633 luciferase units and 21213 luciferase units and the “luciferase units observed” value (HCVpp; peptide 0.0046 ug/ml, condition C) was 13903 luciferase units and 13795 luciferase units and 14095 luciferase units and 10535 luciferase units. For the same substance, the “luciferase units observed” value (HCVpp; [1]) was 7498 luciferase units and 7299 luciferase units, the “luciferase units observed” value (HCVpp; [2]) was 6703 luciferase units and 9954 luciferase units and the “luciferase units observed” value (HCVpp; [3]) was 16101 luciferase units and 13757 luciferase units. For the same substance, the “luciferase units observed” value (HCVpp; [4]) was 5745 luciferase units and 7826 luciferase units, the “luciferase units observed” value (HCVpp; [5]) was 7670 luciferase units and 6880 luciferase units and the “luciferase units observed” value (HCVpp; [6]) was 9444 luciferase units and 10124 luciferase units. The “luciferase units observed” value (HCVpp; [7]) was 5517 luciferase units and 5574 luciferase units, the “luciferase units observed” value (HCVpp; [8]) was 4724 luciferase units and 3648 luciferase units and the “luciferase units observed” value (HCVpp; [9]) was 9027 luciferase units and 11381 luciferase units. For the same substance, the “luciferase units observed” value (HCVpp; [10]) was 3584 luciferase units and 5974 luciferase units, the “luciferase units observed” value (HCVpp; [11]) was 5542 luciferase units and 4382 luciferase units and the “luciferase units observed” value (HCVpp; [12]) was 6131 luciferase units and 6853 luciferase units. For the same substance, the “luciferase units observed” value (HCVpp; [13]) was 2824 luciferase units and 3255 luciferase units, the “luciferase units observed” value (HCVpp; [14]) was 3059 luciferase units and 3424 luciferase units and the “luciferase units observed” value (HCVpp; [15]) was 9414 luciferase units and 8570 luciferase units. For the same substance, the “luciferase units observed” value (HCVpp; [16]) was 2833 luciferase units and 2954 luciferase units, the “luciferase units observed” value (HCVpp; [17]) was 7352 luciferase units and 4725 luciferase units and the “luciferase units observed” value (HCVpp; [18]) was 1677 luciferase units and 2383 luciferase units. For the same substance, the “luciferase units observed” value (HCVpp; [19]) was 2900 luciferase units and 1914 luciferase units, the “luciferase units observed” value (HCVpp; [20]) was 8294 luciferase units and 8104 luciferase units and the “luciferase units observed” value (HCVpp; peptide 100 ug/ml, condition A) was 1924 luciferase units and 1845 luciferase units. For the same substance, the “luciferase units observed” value (HCVpp; peptide 100 ug/ml, condition C) was 5118 luciferase units and 8821 luciferase units, the “inhibition compared to anti-CD81 antibody in the wash-off experiment” value (HCVpp; pre-incubated with cells at 37° C. and 4° C.) was “more inhibition” and the “inhibition at condition C” value (HCVpp; pre-incubated with cells only and washed off, then virus added) was “little inhibition”.

Source: patent US20100119483A1, “PEPTIDE VIRAL ENTRY INHIBITORS” (Schering Corporation, priority 2004, published 2010)
